Legend:
ERβ [1] = assay: Western blot of ERβ protein expression in PSMC; assay type: cell-based, porcine; settings: oligomer 10^−6 mol/L, vs PBS-treated cells
Description: (§1) The efficiency and specificity of our antisense sequences to block the targeted protein expression were evaluated by Western blot analysis. Culture medium of confluent PAEC and PSMC (100-mm tissue culture plate) were rinsed with Dulbecco's modified eagle medium (DMEM; Life Technologies Inc., Carlsbad, Calif.) and trypsinized (trypsine-EDTA; Life Technologies). Cells were resuspended in DMEM containing 5% of fetal bovine serum and antibiotics (penicillin and streptomycin, Sigma, St-Louis, Mo.), and a cell count was obtained with a Coulter counter Z1 (Coulter Electronics, Luton, UK). Cells were seeded at 1×10^6 cells/100-mm tissue culture plate (Becton-Dickinson, Rutherford, N.J.), stimulated for 24 h in DMEM, 5% FBS, and antibiotics with or without antisense oligomers (10^−7, 5×10^−7, 10^−6 mol/L) and starved for 48 h in DMEM, 0.1% FBS, and antibiotics with or without antisense oligomers (10^−7, 5×10^−7, 10^−6 mol/L daily) for G0 synchronization. LipofectAnime (5 μg/ml, Life Technology Inc) was used as a transfection reagent only on PSMC. The cells were then grown to confluence for 16 h in DMEM, 5% FBS, and antibiotics with or without antisense oligomers (10^−7, 5×10^−7, 10^−6 mol/L) and starved for 7 h in DMEM, 0.1% FBS, and antibiotics with or without antisense oligomers (10^−7, 5×10^−7, 10^−6 mol/L) to induce an up-regulation of the ER expression. Culture medium was removed, and cells were rinsed twice with ice-cold DMEM. Total proteins were prepared by the addition of 500 μl of lysis buffer containing phenylmethylsulfonyl fluoride 1 mM (Sigma), leupeptin 10 μg/ml (Sigma), aprotinin 30 μg/mi (Sigma), and NaVO3 1 mM (Sigma). Plates were incubated at 4° C. for 30 min and scraped, and the protein concentration was determined with a Bio-Rad protein kit (Bio-Rad, Hercules, Calif.). Same protein quantity for each cell type were dissolved in Laemmli's buffer, boiled for 5 min in reducing conditions, separated by a 10% gradient SDS-PAGE (Protean II kit; Bio-Rad), and transblotted onto a 0.45-μm polyvinylidene difluoride membranes (Millipore Corp., Bedford, Mass.). […]

ERβ [2] = assay: Western blot of ERβ protein expression in PAEC; assay type: cell-based, porcine; settings: oligomer 10^−6 mol/L, vs PBS-treated cells
Description: as §1

ERα [3] = assay: Western blot of ERα protein expression in PAEC; assay type: cell-based, porcine; settings: oligomer 10^−6 mol/L, vs PBS-treated cells
Description: as §1

ERα [4] = assay: Western blot of ERα protein expression in PSMC; assay type: cell-based, porcine; settings: oligomer 10^−6 mol/L, vs PBS-treated cells
Description: as §1

[5] = system: Porcine aortic endothelial cells (PAEC); assay: Chemotactic assay on PAEC (modified Boyden chamber); assay type: cell-based; settings: 5 hrs
Description: (§2) Cell migration was evaluated using a modified Boyden 48-well microchamber kit (NeuroProbe, Cabin John, MD.). Near confluent EC and PSMC were rinsed with DMEM and trypsinized. Cells were resuspended in DMEM, 5% FBS, and antibiotics, and a cell count was obtained. […] ER antagonists were added 5 minutes before 17βE. Cells were harvested by trypsinization and resuspended in DMEM, 1% FBS, and antibiotics at a concentration of 5×10^5 cells/ml. […] The two sections of the system were separated by a porous polycarbonate filter (5-μm pores), pre-treated with a gelatine solution (1.5 mg/ml), and assembled. Five hours post incubation at 37° C., the nonmigrated cells were scraped with a plastic policeman, and the migrated cells were stained using a Quick-Diff solution. The filter was then mounted on a glass slide, and migrated cells were counted using a microscope adapted to a video camera to obtain a computer-digitized image.
(§3) Cell migration was evaluated using a modified Boyden 48-well microchamber kit (NeuroProbe, Cabin John, MD.). Near confluent PAEC and PSMC were rinsed with DMEM and trypsinized. Cells were resuspended in DMEM, 5% FBS, and antibiotics, and a cell count was obtained. PAEC and PSMC were seeded at 2.5×10^5 cells/well of 6-well tissue culture plates; stimulated for 24 hours in DMEM, 5% FBS, and antibiotics with or without antisense oligomers (10^−6 mol/L) and starved for 48 hours in DMEM, 0.1% FBS, and antibiotics with or without antisense oligomers (10^−6 mol/L daily) with or without 17βE (10^−8 mol/L). Cells were harvested by trypsinization and resuspended in DMEM, 1% FBS, and antibiotics at a concentration of 5×10^5 cells/mL. Fifty μL of this cell suspension with or without antisense oligomers (10^−6 mol/L) treated with or without 17βE (10^−8 mol/L) was added in the higher-chamber of the modified Boyden chamber apparatus, and the lower chamber was filled with DMEM, 1% FBS, antibiotics plus the desired concentration of agonist either 17βE (10^−8 mol/L) or platelet-derived growth factor-BB (PDGF-BB). The 2 sections of the system were separated by a porous polycarbonate filter (5-μm pores size), pretreated with a gelatine solution (1.5 mg/mL), and assembled. Five hours postincubation at 37° C., the non-migrated cells were scraped with a plastic policeman, and the migrated cells were stained using a Quick-Diff solution (Shandon Inc). The filter was then mounted on a glass slide, and migrated cells were counted using a microscope adapted to a video camera to obtain a computer-digitized image.

[6] = system: Porcine smooth muscle cells (PSMC); assay: Chemotactic assay on PSMC (modified Boyden chamber); assay type: cell-based; settings: 5 hours
Description: as §2, §3

| Molecule | inhibition of basal ERβ protein expression (ERβ [1]) | inhibition of basal ERβ protein expression (ERβ [2]) | inhibition of basal ERα protein expression (ERα [3]) | inhibition of basal ERα protein expression (ERα [4]) | also measured |
| --- | --- | --- | --- | --- | --- |
| SCR-ERβ: scrambled phosphothioate sequence, negative control: 5′-GAG TGG ACG TGA AGA AGT-3′ (GAGTGGACGTGAAGAAGT; DNA, all phosphorothioate, methylation of C not given here) | no suppressing effect | no suppressing effect |  |  |  |
| AS1-ERβ: antisense oligonucleotide, phosphothioate backbone, targeting porcine ERβ mRNA: 5′-GTA GGA GAC AGG AGA GTT-3′ (antisense GTAGGAGACAGGAGAGTT; DNA, all phosphorothioate, methylation of C not given here) | 84% | 90% |  |  |  |
| AS2-ERα: antisense oligonucleotide, phosphothioate backbone, targeting porcine ERα mRNA: 5′-GAC GCT TTG GTG TGT AGG-3′ (antisense GACGCTTTGGTGTGTAGG; DNA, all phosphorothioate, methylation of C not given here) |  |  | 95% | 89% |  |
| bFGF: basic fibroblast growth factor, chemotactic agonist for PAEC |  |  |  |  | induction of PAEC migration as compared to DMEM 1% ([5]; bFGF 1 ng/ml): 46%; induction of PAEC migration as compared to DMEM 1% ([5]; bFGF 5 ng/ml): 124%; induction of PAEC migration as compared to DMEM 1% ([5]; bFGF 10 ng/ml): 114% |
| AS2-ERβ: antisense oligonucleotide, phosphothioate backbone, targeting porcine ERβ mRNA: 5′-GCT AAA GGA GAG AGG TGT-3′ (antisense GCTAAAGGAGAGAGGTGT; DNA, all phosphorothioate, methylation of C not given here) | 92% | 97% |  |  |  |
| AS1-ERα: antisense oligonucleotide, phosphothioate backbone, targeting porcine ERα mRNA: 5′-CTC GTT GGC TTG GAT CTG-3′ (antisense CTCGTTGGCTTGGATCTG; DNA, all phosphorothioate, methylation of C not given here) |  |  | 94% | 88% |  |
| SCR-ERα: scrambled phosphothioate sequence, negative control: 5′-TGT AGC TCG GTT CTG TCG-3′ (TGTAGCTCGGTTCTGTCG; DNA, all phosphorothioate, methylation of C not given here) |  |  | no suppressing effect | no suppressing effect |  |
| PDGF-BB: platelet derived growth factor-BB, agonist in the lower Boyden chamber and MAPK stimulus (protein, UniProt P01127 82-190, looked up) Platelet-derived growth …: SLGSLTIAEPAMIAECKTRTEVFEISRRLIDRTNANFLVWPPCVEVQRCSGCCNNRNVQCRPTQVQLRPVQVRKIEIVRKKPIFKKATVTLEDHLACKCETVAAARPVT |  |  |  |  | induction of PSMC migration as compared to DMEM 1% ([6]; PDGF-BB 1 ng/ml): 96%; induction of PSMC migration as compared to DMEM 1% ([6]; PDGF-BB 5 ng/ml): 137%; induction of PSMC migration as compared to DMEM 1% ([6]; PDGF-BB 10 ng/mL, Example 2): 199%; induction of PSMC migration as compared to DMEM 1% ([6]; PDGF-BB 10 ng/ml, Example 1): 202% |

From patent publication US7235534B2, “Antisense strategy to modulate estrogen receptor response (ER α and/or ER β )” (Institut de Cardiologie de Montreal, priority 2001, dated 2007)
